Molecular target: T1, GRK2 (Homo sapiens, UniProt P25098)
T1 construct: purchased SignalChem A14-10G
T1 sequence (P25098 1-689): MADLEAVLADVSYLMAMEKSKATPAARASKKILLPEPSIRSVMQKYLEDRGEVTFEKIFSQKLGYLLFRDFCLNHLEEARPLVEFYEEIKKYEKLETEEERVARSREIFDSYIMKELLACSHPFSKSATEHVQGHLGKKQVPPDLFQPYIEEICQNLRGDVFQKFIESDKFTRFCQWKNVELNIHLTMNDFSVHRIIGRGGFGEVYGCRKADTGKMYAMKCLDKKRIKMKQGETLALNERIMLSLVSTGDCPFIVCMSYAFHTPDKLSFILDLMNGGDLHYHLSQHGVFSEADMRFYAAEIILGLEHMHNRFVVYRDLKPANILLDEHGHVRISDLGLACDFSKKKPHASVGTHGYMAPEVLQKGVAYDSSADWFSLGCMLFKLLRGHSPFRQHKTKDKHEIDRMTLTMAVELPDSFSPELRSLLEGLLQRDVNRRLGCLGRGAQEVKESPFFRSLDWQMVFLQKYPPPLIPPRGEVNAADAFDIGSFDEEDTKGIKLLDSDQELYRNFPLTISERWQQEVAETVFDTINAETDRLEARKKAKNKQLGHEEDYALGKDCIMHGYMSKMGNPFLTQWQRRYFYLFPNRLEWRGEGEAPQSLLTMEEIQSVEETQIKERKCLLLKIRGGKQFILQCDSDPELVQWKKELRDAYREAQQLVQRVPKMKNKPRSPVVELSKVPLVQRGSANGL
Test: ADPGlo GRK2 Inhibition Assay (Example 8)
Format: biochemical
Conditions: ADPGlo GRK2 enzyme assay; read-out: A: Enzymatic GRK2: IC50 (nM) (Example 8)
Procedure: HTS was performed using 1 μM compound.
Compounds were dissolved in 100% DMSO, serially diluted tree-fold from 100 μM concentration to 46 nM and transferred (50 nL) into assay ready plate.
Materials: GRK2 was purchased from SignalChem (Cat #A14-10G, Lot #X^645-3). Substrate GRKtide was from SignalChem (Cat #G46-58, Lot #R339-6). ADP-Glo Kinase Assay from Promega (Cat #V9102). Assay buffer consisted of 25 mMv HEPES (pH7.5), 10 mMv MgCl2, 0.01% Tween-20, 1 mM DDT. 384-well white plates were from Greiner […] (Item #784075).
HTS protocol: Take 384 well plate with 50 nL of compound in columns 3-22/DMSO solution 1-2,23-24. Add 2.5 μL assay buffer to columns 23 and 24 using Thermo Scientific Multidrop Combi Dispenser. Add 2.5 μL of 2× enzyme solution (15 nM in 1× assay buffer) using Thermo Scientific Multidrop Combi Reagent Dispenser to all columns except of 23 and 24. Incubate for 15 minutes. Fill plate with 2.5 μL of 2× substrate mix (20 μM ATP and 0.6 mg/nt GRKtide in Ix assay buffer) using Thermo Scientific Multidrop Combi Reagent Dispenser. Spin 15 seconds at 1000 rpm and incubate for 180 min at room temperature. Add 5 μL ADP-Glo reagent to all the wells. Spin 15 seconds at 1000 rpm and incubate for 40 min at room temperature. Add 10 μL Detection solution to all the wells. Incubate for 30 min at room temperature. Read plate in Luminescent modeon BMG PheraStar FSX (gain=3600).
Data Analysis: Data were analyzed in GraphPad Prism 8.0.2. Each HTS plate contains compounds in columns 3-22, controls (enzyme, no compound) in columns 1 and 2, and blanks (no enzyme) in columns 23 and 24. HTS percent inhibition was calculated for each compound from the signal in luminescence units and the mean of the plate controls and the mean of the plate blanks using the following equation: % Inhibition=100*(1−((signal-blank mean)/(control mean-blank mean))). At the final stage of data processing, we obtain dose-response curves, tables and SDF-files with the results of screening for each substance.

Structure (SMILES) | IC50 [nM]
CN1CCN(c2ncccc2CNC(=O)c2cccc(NCc3nnc(-c4ccncn4)n3C)c2)CC1 | 289
Cn1c(CNc2cccc(C(=O)NCc3ccncc3OCC3CCOC3)c2)nnc1-c1ccncn1 (centres unmarked) | 871
CC(C)NS(=O)(=O)Cc1ccccc1CNC(=O)c1cccc(NCc2nnc(-c3ccncn3)n2C)c1 | 69.8
Cn1c(CNc2cccc(C(=O)NCc3c4c(n[nH]c3=O)CCCC4)c2)nnc1-c1ccncn1 | 531
Cn1c(CNc2cccc(C(=O)NCc3nccnc3O)c2)nnc1-c1ccncn1 | 728
CN(C)c1cccnc1CNC(=O)c1cccc(NCc2nnc(-c3ccncn3)n2C)c1 | 120
Cn1c(CNc2cccc(C(=O)NCc3cccnc3-n3cccn3)c2)nnc1-c1ccncn1 | 146
Cn1c(CNc2cccc(C(=O)NCc3ccccc3-n3cccn3)c2)nnc1-c1ccncn1 | 184
Cn1c(CNc2cccc(C(=O)NCc3cccnc3N3CCOCC3)c2)nnc1-c1ccncn1 | 176
COc1cccc2c1CCC2(CO)NC(=O)c1cccc(NCc2cnc(-c3ccncn3)n2C)c1 (centres unmarked) | 134
Cn1c(CNc2cccc(C(=O)NC3(CO)CCc4ccccc43)c2)cnc1-c1ccncn1 (centres unmarked) | 929
CN1CCc2ccccc2C(NC(=O)c2cccc(NCc3nnc(-c4ccncn4)n3C)c2)C1=O (centres unmarked) | 253
Cn1c(CNc2cccc(C(=O)NC3CCCc4[nH]c(=O)ccc43)c2)nnc1-c1ccncn1 (centres unmarked) | 392
Cn1c(CNc2cccc(C(=O)NC3CCCS(=O)(=O)c4ccccc43)c2)nnc1-c1ccncn1 (centres unmarked) | 194
Cn1c(CNc2cccc(C(=O)NC3CNCCc4ccccc43)c2)nnc1-c1ccncn1 (centres unmarked) | 142
CN1CCN(Cc2ccccc2CNC(=O)c2cccc(NCc3nnc(-c4ccncn4)n3C)c2)CC1 | 159
Cn1c(CNc2cccc(C(=O)NCc3cccnc3-n3cncn3)c2)nnc1-c1ccncn1 | 119
CNc1cccnc1CNC(=O)c1cccc(NCc2nnc(-c3ccncn3)n2C)c1 | 133
Cn1c(CNc2cccc(C(=O)NCc3ncccc3S(C)(=O)=O)c2)nnc1-c1ccncn1 | 172
COc1cccc(CCNC(=O)c2cccc(NCc3nnc(-c4ccncn4)n3C)c2)c1 | 340
COc1ccc([C@H](C)NC(=O)c2cccc(NCc3nnc(-c4ccncn4)n3C)c2)cc1 | 593
Cn1c(CNc2cccc(C(=O)NCc3ccc(CO)c(F)c3)c2)nnc1-c1ccncn1 | 103
Cn1c(CNc2cccc(C(=O)NCc3ccc(O)nc3)c2)nnc1-c1ccncn1 | 203
Cn1c(CNc2cccc(C(=O)NCC3(c4ccccn4)CC3)c2)nnc1-c1ccncn1 | 526

More lines, in order of falling IC50, values ahead:

IC50 [nM] | Structure (SMILES)
950 | C[C@H](NC(=O)c1cccc(NCc2nnc(-c3ccncn3)n2C)c1)c1ccc(Cl)cn1
651 | Cn1c(CNc2cccc(C(=O)NC3(CO)CCCc4ccccc43)c2)nnc1-c1ccncn1 (centres unmarked)
505 | Cc1ccccc1C(CN1CCOCC1)NC(=O)c1cccc(NCc2nnc(-c3ccncn3)n2C)c1 (centres unmarked)
504 | CCc1n[nH]c(=O)c(CNC(=O)c2cccc(NCc3nnc(-c4ccncn4)n3C)c2)c1CC
382 | Cc1ncc(CNC(=O)c2cccc(NCc3nnc(-c4ccncn4)n3C)c2)c(O)n1
283 | Cn1c(CNc2cccc(C(=O)NC3(CO)CCOc4ccccc43)c2)nnc1-c1ccncn1 (centres unmarked)
267 | CCN1CCN(Cc2ccccc2CNC(=O)c2cccc(NCc3nnc(-c4ccncn4)n3C)c2)CC1
209 | CC(O)C(NC(=O)c1cccc(NCc2nnc(-c3ccncn3)n2C)c1)c1ccccc1F (centres unmarked)
146 | Cn1c(CNc2cccc(C(=O)NC(CO)c3c(F)cccc3F)c2)nnc1-c1ccncn1 (centres unmarked)
145 | Cn1c(CNc2cccc(C(=O)NCc3ccccc3OCCN3CCOCC3)c2)nnc1-c1ccncn1
136 | Cn1c(CNc2cccc(C(=O)NCc3ccccc3CN3CCC(O)C3)c2)nnc1-c1ccncn1 (centres unmarked)
135 | Cn1c(CNc2cccc(C(=O)NCc3cnn(C(C)(C)C)c3)c2)nnc1-c1ccncn1
104 | Cn1c(CNc2cccc(C(=O)NC3(c4ncccc4F)CC3)c2)nnc1-c1ccncn1
103 | Cn1c(CNc2cccc(C(=O)NCc3cc(Br)cnc3O)c2)nnc1-c1ccncn1

— US20230009608A1, “GRK2 INHIBITORS AND USES THEREOF” (Cygnal Therapeutics, Inc., priority 2020, published 2023)
